This note sets out measurements from patent US7803930B2, “Antisense modulation of apolipoprotein B-expression” (Isis Pharmaceuticals, Inc., priority 2002, dated 2010).

In the oligonucleotide strings, read from the 5' end, every base follows the letter of its sugar. An asterisk marks phosphorothioate; unmarked linkages are phosphodiester. Other units and linkages are bracketed, terminal groups are in braces. A string of capitals states the bases alone. e = 2'-O-(2-methoxyethyl) (MOE); [5mC] = 5-methylcytosine; d = 2'-deoxy (DNA)

The nature of series [1]: High fat fed mice (Example 51): total, LDL- and HDL-cholesterol levels. The class given is in vivo, mouse. The note with it: 50 mg/kg i.p. twice weekly. The method, then: In a further embodiment of the invention, the inhibition of apolipoprotein B mRNA in mice was compared to liver oligonucleotide concentration, total cholesterol, LDL-cholesterol and HDL-cholesterol. Male C57Bl/6 mice receiving a high fat diet (60% fat) were evaluated over the course of 6 weeks for the effects of treatment with twice weekly intraperitoneal injections of 50 mg/kg ISIS 147764 (SEQ ID NO: 109) or 50 mg/kg of the control oligonucleotide ISIS 141923 (SEQ ID NO: 858). Control animals received saline treatment. Animals were sacrificed after 2 days, 1, 2, 4 and 6 weeks of treatment. Each treatment group at each time point consisted of 8 mice.
Target expression in liver was measured by real-time PCR as described by other examples herein and is expressed as percent inhibition relative to saline treated mice. Total, LDL- and HDL-cholesterol levels were measured by routine clinical analysis using an Olympus Clinical Analyzer (Olympus America Inc., Melville, N.Y.) and are presented in mg/dL. Results from saline-treated animals are shown for comparison. Intact oligonucleotide in liver tissue was measured by capillary gel electrophoresis and is presented as micrograms of oligonucleotide per gram of tissue.
The oligonucleotide treatments described in this example were duplicated to investigate the extent to which effects of ISIS 147764 persist following cessation of treatment. Mice were treated as described, and sacrificed 1, 2, 4, 6 and 8 weeks following the cessation of oligonucleotide treatment.

The subject of the next series is apolipoprotein B mRNA. The series can be described thus: ApoE knockout mice (Example 28): target mRNA levels in liver. It is filed as in vivo, mouse. As to conditions: high fat diet, six weeks. From the text:
Female ApoE knockout mice ranged in age from 5 to 7 weeks and were placed on a normal diet for 2 weeks before study initiation. ApoE knockout mice were then fed ad libitum a 60% fat diet, with 0.15% added cholesterol to induce dyslipidemia and obesity. Control animals were maintained on a high-fat diet with no added cholesterol. […]
At study termination and forty eight hours after the final injections, animals were sacrificed and evaluated for target mRNA levels in liver by RT-PCR methods verified by Northern Blot analysis, glucose levels, cholesterol and lipid levels by HPLC separation methods and triglyceride and liver enzyme levels (performed by LabCorp Preclinical Services; San Diego, Calif.).
Data are normalized to saline controls.

The mark [2] stands for this setting: high fat fed male C57Bl/6 mice, treatment period 1 week.
Setting [3] is: high fat fed male C57Bl/6 mice, treatment period 2 weeks.
[4] abbreviates: high fat fed male C57Bl/6 mice, treatment period 4 weeks.
The mark [5] stands for this setting: high fat fed male C57Bl/6 mice, treatment period 6 weeks.
Where [6] appears, read: high fat fed male C57Bl/6 mice, treatment period 2 days.
Where [7] appears, read: high fat fed mice, 1 week after cessation of dosing.
[8] abbreviates: high fat fed mice, 2 weeks after cessation of dosing.
The mark [9] stands for this setting: high fat fed mice, 4 weeks after cessation of dosing.
Where [10] appears, read: high fat fed mice, 6 weeks after cessation of dosing.
Setting [11] is: high fat fed mice, 8 weeks after cessation of dosing.

In the case of “147764 (eG*eT*e[5mC]*e[5mC]*e[5mC]*dT*dG*dA*dA*dG*dA*dT*dG*dT*d[5mC]*eA*eA*eT*eG*e[5mC]) [compound 147764]”, the HDL-cholesterol in series [1] (setting [2]) was 107 mg/dL; in series [1] (setting [3]), 105 mg/dL; in series [1] (setting [4]), 66 mg/dL; in series [1] (setting [5]), 64 mg/dL; in series [1] (setting [6]), 76 mg/dL; in series [1] (setting [7]), 51 mg/dL. For the same substance, the HDL-cholesterol in series [1] (setting [8]) is on record as 49 mg/dL; in series [1] (setting [9]), 79 mg/dL; in series [1] (setting [10]), 100 mg/dL; in series [1] (setting [11]), 94 mg/dL. Further, the LDL-cholesterol stood at 19 mg/dL in series [1] (setting [2]); 14 mg/dL in series [1] (setting [3]); 7 mg/dL in series [1] (setting [4]); 7 mg/dL in series [1] (setting [5]); 7 mg/dL in series [1] (setting [6]); 14 mg/dL in series [1] (setting [7]). For the same substance, the LDL-cholesterol stood at 14 mg/dL in series [1] (setting [8]), 18 mg/dL in series [1] (setting [9]), 24 mg/dL in series [1] (setting [10]) and 21 mg/dL in series [1] (setting [11]). Further, the Total cholesterol stood at 128 mg/dL in series [1] (setting [2]); 121 mg/dL in series [1] (setting [3]); 75 mg/dL in series [1] (setting [4]); 73 mg/dL in series [1] (setting [5]); 101 mg/dL in series [1] (setting [6]); 69 mg/dL in series [1] (setting [7]). The Total cholesterol in series [1] (setting [8]) was determined as 67 mg/dL; in series [1] (setting [9]), 111 mg/dL; in series [1] (setting [10]), 138 mg/dL; in series [1] (setting [11]), 135 mg/dL.
On to “GTCCCTGAAGATGTCAATGC (2'-MOE gapmer, further chemistry not given here) [ISIS 147764]”, for which the “mRNA Percent Inhibition” value in the series with apolipoprotein B mRNA (5 mg/kg i.p. every three days) is recorded as 2%; in the series on apolipoprotein B mRNA (25 mg/kg i.p. every three days), 42%; in the series with apolipoprotein B mRNA (50 mg/kg i.p. every three days), 70%.
